Data taken from US20230373989A1, “N-PHENYLAMINOCARBONYL PYRIDINO-, PYRIMIDINO AND BENZO-TROPANES AS MODULATORS OF GPR65” (PATHIOS THERAPEUTICS LIMITED, priority 2020, published 2023).

target: T1, human recombinant GPR65 (Homo sapiens, UniProt Q8IYL9); assay: Human GPR65 cAMP HTRF antagonist assay; type: cell-based; conditions: not given
T1 construct: host or cells: 1321N1 human astrocytoma cells (1321N1-hrGPR65)
Excerpt: In one preferred embodiment, the compound prevents the increase in cytoplasmic cAMP levels expected following GPR65 activation at acidic pH. This prevention of cAMP accumulation in turn prevents downstream signalling through ICER, as described above. The “Human GPR65 cyclic adenosine monophosphate (cAMP) Homogeneous Time Resolved Fluorescence (HTRF) antagonist assay”, or simply “cAMP assay”, as described in the accompanying examples, can be used to measure the potency of GPR65 modulators, which is expressed as the concentration of compound required to reduce the increase in cAMP concentration upon GPR65 activation by 50% (i.e. an IC50).
Human GPR65 Cyclic Adenosine Monophosphate (cAMP) Homogeneous Time Resolved Fluorescence (HTRF) Antagonist Assay Procedure
IC50 data was obtained by the following procedure:
1321N1 human astrocytoma cells stably expressing human recombinant GPR65 (1321N1-hrGPR65 cells, EuroscreenFast) were cultured according to the vendor's instructions.
Compounds were tested for their ability to antagonise GPR65, through measuring the concentration of cytoplasmic cAMP following treatment of the cells at a pH of 7.2 to activate GPR65 signalling and addition of the compound to be tested. The extent to which the expected rise in cAMP concentration upon GPR65 activation was suppressed by the added compound is indicative of its potency. The assay was carried out according to EuroscreenFast assay methodology as follows.
On the day of the assay, test compounds were added to 384-well, low volume, white microtiter plates by acoustic dispensing. KRH buffer (5 mM KCl, 1.25 mM MgSO4, 124 mM NaCl, 25 mM HEPES, 13.3 mM Glucose, 1.25 mM KH2PO4 and 1.45 mM CaCl2) was adjusted to pH 6.5, pH 7.6 and pH 8.4 by adding NaOH. 1321N1-hGPR65 cells were rapidly thawed and diluted in KRH, pH 7.6 prior to centrifugation at 300×g for 5 min and resuspension in assay buffer (KRH, pH 7.6, supplemented with 1 mM 3-isobutyl-1-methylxanthine (IBMX) and 200 μM ethylenediaminetetraacetic acid (EDTA)). Cells were added to assay plates at a density of 2,000 cells per well in a volume of 5 μl. Assay plates were briefly centrifuged at 100×g and then incubated at room temperature for 30 min. Cells were stimulated by the addition of 5 μL KRH, pH 6.5, to achieve an assay pH of 7.2, while control wells received 5 μl KRH, pH 8.4 to achieve an assay pH of 7.9. Assay plates were briefly centrifuged at 100×g and then incubated at room temperature for 30 min.
Accumulation of cAMP was detected by cAMP HTRF kit (Cisbio). d2-labeled cAMP and cryptate-labeled anti-cAMP antibody in Lysis and Detection Buffer (Cisbio) were added to assay plates, and the plates were incubated at room temperature for 1 h. HTRF measurements were performed using a Pherastar FSX instrument. Acceptor and donor emission signals were measured at 665 nm and 620 nm, respectively, and HTRF ratios were calculated as signal665 nm/signal620 nm×104. Data were normalised to high and low control values and fitted with 4-parameter logistic regression to determine hGPR65 IC50 values for the test compounds, which are shown in Table 1.

T1 sequence (Q8IYL9 whole entry): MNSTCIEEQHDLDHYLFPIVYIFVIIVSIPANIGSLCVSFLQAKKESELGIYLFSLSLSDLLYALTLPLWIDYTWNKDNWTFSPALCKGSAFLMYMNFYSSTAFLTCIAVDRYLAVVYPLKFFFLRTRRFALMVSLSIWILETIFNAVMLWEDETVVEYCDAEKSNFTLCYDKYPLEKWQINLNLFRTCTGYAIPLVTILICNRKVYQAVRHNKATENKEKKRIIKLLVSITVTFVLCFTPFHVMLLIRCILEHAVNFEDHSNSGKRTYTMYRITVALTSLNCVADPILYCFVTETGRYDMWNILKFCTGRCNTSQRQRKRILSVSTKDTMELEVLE

SMILES | IC50
O=C(Nc1cc(Br)c(Cl)cc1F)N1[C@H]2CC[C@@H]1c1c[nH]c(=O)cc1C2 [Compound 142, (6S,9R)-N-(5-Bromo-4-chloro-2-fluorophenyl)-3-oxo-3,5,6,7,8,9-hexahydro-2H-6,9-epiminocyclohepta[c]pyridine-10-carboxamide] | < 500 nM
O=C(Nc1ccc(Cl)c(Cl)c1)N1[C@H]2CC[C@@H]1c1ccncc1C2 [Compound 108, (5R,8S)-N-(3,4-Dichlorophenyl)-6,7,8,9-tetrahydro-5H-5,8-epiminocyclohepta[c]pyridine-10-carboxamide] | < 500 nM
COC(=O)c1cc(NC(=O)N2[C@H]3CC[C@@H]2c2ccnc(F)c2C3)c(F)cc1Cl [Compound 125, Methyl 2-chloro-4-fluoro-5-((5R,8S)-1-fluoro-6,7,8,9-tetrahydro-5H-5,8-epiminocyclohepta[c]pyridine-10-carboxamido)benzoate] | < 500 nM
N#Cc1cc(Cl)c(Cl)cc1NC(=O)N1[C@H]2CC[C@@H]1c1c[nH]c(=O)cc1C2 [Compound 88, (6S,9R)-N-(4,5-Dichloro-2-cyanophenyl)-3-oxo-3,5,6,7,8,9-hexahydro-2H-6,9-epiminocyclohepta[c]pyridine-10-carboxamide] | < 500 nM
O=C(Nc1cc(C(F)(F)F)c(Cl)cc1F)N1[C@H]2CC[C@@H]1c1c[nH]c(=O)cc1C2 [Compound 129, (6S,9R)-N-(4-Chloro-2-fluoro-5-(trifluoromethyl)phenyl)-3-oxo-3,5,6,7,8,9-hexahydro-2H-6,9-epiminocyclohepta[c]pyridine-10-carboxamide] | < 500 nM
O=C(Nc1ccc(C(F)(F)F)c(Br)c1)N1C2CCC1c1cncnc1C2 (racemic) [Compound 15, (±)-N-(3-Bromo-4-(trifluoromethyl)phenyl)-6,7,8,9-tetrahydro-5H-5,8-epiminocyclohepta[d]pyrimidine-10-carboxamide] | < 500 nM
O=C(Nc1cc(Cl)c(C(F)(F)F)cc1F)N1[C@H]2CC[C@@H]1c1ccc(F)nc1C2 [Compound 196, (5R,8S)-N-(5-Chloro-2-fluoro-4-(trifluoromethyl)phenyl)-2-fluoro-6,7,8,9-tetrahydro-5H-5,8-epiminocyclohepta[b]pyridine-10-carboxamide] | < 500 nM
O=C(Nc1ccc(Cl)c(Cl)c1)N1[C@@H]2CC[C@H]1c1cnc(F)cc1C2 [Compound 198, (6R,9S)-N-(3,4-dichlorophenyl)-3-fluoro-6,7,8,9-tetrahydro-5H-6,9-epiminocyclohepta[c]pyridine-10-carboxamide] | 500 to 5000 nM
O=C(Nc1ccc(Cl)c(Cl)c1)N1C2CCC1c1ccc(F)cc1C2 (racemic) [Compound 74, (±)-N-(3,4-Dichlorophenyl)-2-fluoro-6,7,8,9-tetrahydro-5H-5,8-epiminobenzo[7]annulene-10-carboxamide] | < 500 nM
O=C(Nc1cc(Cl)c(C(F)(F)F)cc1F)N1C2CCC1c1ccc(F)nc1C2 (racemic) [Compound 182, (±)-N-(5-Chloro-2-fluoro-4-(trifluoromethyl)phenyl)-2-fluoro-6,7,8,9-tetrahydro-5H-5,8-epiminocyclohepta[b]pyridine-10-carboxamide] | < 500 nM
O=C(Nc1ccc(F)c(Br)c1)N1C2CCC1c1ccnc(F)c1C2 (racemic) [Compound 172, (±)-N-(3-Bromo-4-fluorophenyl)-1-fluoro-6,7,8,9-tetrahydro-5H-5,8-epiminocyclohepta[c]pyridine-10-carboxamide] | < 500 nM
O=C(Nc1cccc(C(F)(F)F)c1)N1C2CCC1c1ccnc(F)c1C2 (racemic) [Compound 156, (±)-1-Fluoro-N-(3-(trifluoromethyl)phenyl)-6,7,8,9-tetrahydro-5H-5,8-epiminocyclohepta[c]pyridine-10-carboxamide] | < 500 nM

same assay, conditions: 1321N1-hrGPR65 cells, assay pH 7.2, cAMP HTRF; read-out: hGPR65 IC50 (activity class)

SMILES | IC50
COc1cc(Cl)c(Cl)cc1NC(=O)N1[C@H]2CC[C@@H]1c1ccnc(F)c1C2 [Compound 118, (5R,8S)—N-(4,5-dichloro-2-methoxyphenyl)-1-fluoro-6,7,8,9-tetrahydro-5H-5,8-epiminocyclohepta[c]pyridine-10-carboxamide] | 500 to 5000 nM
O=C(Nc1ccc(F)c(F)c1F)N1C2CCC1c1ccnc(F)c1C2 (racemic) [Compound 175, (±)-1-Fluoro-N-(2,3,4-trifluorophenyl)-6,7,8,9-tetrahydro-5H-5,8-epiminocyclohepta[c]pyridin-10-carboxamide] | 500 to 5000 nM
O=C(Nc1ccc(Cl)c(Br)c1)N1C2CCC1c1cncnc1C2 (racemic) [Compound 12, (±)-N-(3-Bromo-4-chlorophenyl)-6,7,8,9-tetrahydro-5H-5,8-epiminocyclohepta[d]pyrimidine-10-carboxamide] | 500 to 5000 nM
O=C(Nc1ccc(C(F)(F)F)c(Cl)c1)N1[C@@H]2CC[C@H]1c1c[nH]c(=O)nc1C2 [Compound 44, (5S,8R)-N-(3-Chloro-4-(trifluoromethyl)phenyl)-2-oxo-3,5,6,7,8,9-hexahydro-2H-5,8-epiminocyclohepta[d]pyrimidine-10-carboxamide] | > 5000 nM
O=C(Nc1ccc(-c2cscn2)cc1)N1[C@H]2CC[C@@H]1c1ccnc(F)c1C2 [Compound 186, (5R,8S)-1-Fluoro-N-(4-(thiazol-4-yl)phenyl)-6,7,8,9-tetrahydro-5H-5,8-epiminocyclohepta[c]pyridine-10-carboxamide] | 500 to 5000 nM
O=C(Nc1ccc(Cl)c(Cl)c1)N1C2CCC1c1ccnc(Br)c1C2 (racemic) [Compound 148, (±)-1-Bromo-N-(3,4-dichlorophenyl)-6,7,8,9-tetrahydro-5H-5,8-epiminocyclohepta[c]pyridine-10-carboxamide] | 500 to 5000 nM
O=C(Nc1ccc(Cl)c(Cl)c1)N1C2CCC1c1cnccc1C2 (racemic) [Compound 104, (±)-N-(3,4-Dichlorophenyl)-6,7,8,9-tetrahydro-5H-6,9-epiminocyclohepta[c]pyridine-10-carboxamide] | 500 to 5000 nM
COC(=O)c1cc(NC(=O)N2[C@H]3CC[C@@H]2c2c[nH]c(=O)cc2C3)ccc1Cl [Compound 131, Methyl 2-chloro-5-((6S,9R)-3-oxo-3,5,6,7,8,9-hexahydro-2H-6,9-epiminocyclohepta[c]pyridine-10-carboxamido)benzoate] | 500 to 5000 nM
O=C(Nc1ccc(Cl)c(Cl)c1)N1C2CCC1c1ccccc1C2 (racemic) [Compound 34, (±)-N-(3,4-Dichlorophenyl)-6,7,8,9-tetrahydro-5H-5,8-epiminobenzo[7]annulene-10-carboxamide] | 500 to 5000 nM
O=C(Nc1ccc(Cl)c(Cl)c1)N1C2CCC1c1cccnc1C2 (racemic) [Compound 87, (±)-N-(3,4-Dichlorophenyl)-6,7,8,9-tetrahydro-5H-5,8-epiminocyclohepta[b]pyridine-10-carboxamide] | > 5000 nM
O=C(Nc1ccc(-n2cccn2)cc1)N1[C@H]2CC[C@@H]1c1ccnc(F)c1C2 [Compound 183, (5R,8S)-N-(4-(1H-Pyrazol-1-yl)phenyl)-1-fluoro-6,7,8,9-tetrahydro-5H-5,8-epiminocyclohepta[c]pyridine-10-carboxamide] | 500 to 5000 nM
CC(C)(C)OC(=O)Nc1nccc2c1C1CCC(C2)N1C(=O)Nc1ccc(Cl)c(Cl)c1 (racemic) [Compound 82, tert-butyl ((±)-10-((3,4-dichlorophenyl)carbamoyl)-6,7,8,9-tetrahydro-5H-6,9-epiminocyclohepta[c]pyridin-1-yl)carbamate] | 500 to 5000 nM
